From ChEMBL document CHEMBL1201862, “PubChem BioAssay data set” (2004)
Active and inactive are the calls of the source.

How the values were obtained:
Format in all cases: functional
[1] = biological target: T1, Sentrin-specific protease 7 (Homo sapiens, UniProt Q9BQF6);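 also: Luminescence-based dose-response confirmation of ultra-high-throughput screening hits, measuring inhibition of SENP7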
T1 sequence (Q9BQF6 whole entry): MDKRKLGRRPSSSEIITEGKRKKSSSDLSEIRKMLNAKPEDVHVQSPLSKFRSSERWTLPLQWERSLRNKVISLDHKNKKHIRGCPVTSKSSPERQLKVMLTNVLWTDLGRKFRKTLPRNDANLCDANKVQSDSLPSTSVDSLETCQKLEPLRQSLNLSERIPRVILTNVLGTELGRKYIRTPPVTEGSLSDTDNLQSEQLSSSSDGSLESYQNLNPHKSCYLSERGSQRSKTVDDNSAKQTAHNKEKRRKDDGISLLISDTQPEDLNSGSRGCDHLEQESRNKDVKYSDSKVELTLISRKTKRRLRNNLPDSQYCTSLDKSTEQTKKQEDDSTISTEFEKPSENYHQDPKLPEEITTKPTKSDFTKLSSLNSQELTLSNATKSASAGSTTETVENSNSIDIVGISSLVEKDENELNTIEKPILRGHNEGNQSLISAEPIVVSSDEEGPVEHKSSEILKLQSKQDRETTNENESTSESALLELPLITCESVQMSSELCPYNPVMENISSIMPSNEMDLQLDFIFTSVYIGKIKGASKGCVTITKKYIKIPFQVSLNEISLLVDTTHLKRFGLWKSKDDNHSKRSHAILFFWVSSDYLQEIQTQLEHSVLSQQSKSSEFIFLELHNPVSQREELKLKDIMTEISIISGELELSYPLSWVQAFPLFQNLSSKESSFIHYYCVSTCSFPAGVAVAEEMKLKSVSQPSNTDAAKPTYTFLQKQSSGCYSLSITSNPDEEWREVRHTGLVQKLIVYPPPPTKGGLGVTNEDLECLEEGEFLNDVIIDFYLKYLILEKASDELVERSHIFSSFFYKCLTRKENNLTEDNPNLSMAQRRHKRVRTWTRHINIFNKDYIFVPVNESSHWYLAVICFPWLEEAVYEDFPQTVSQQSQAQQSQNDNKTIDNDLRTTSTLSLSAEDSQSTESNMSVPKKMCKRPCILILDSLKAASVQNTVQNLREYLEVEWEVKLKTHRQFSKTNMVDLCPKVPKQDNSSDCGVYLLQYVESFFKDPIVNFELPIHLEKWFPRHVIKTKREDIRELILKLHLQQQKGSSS

[2] = biological target: T2, Protein RecA (Mycobacterium tuberculosis, UniProt P9WHJ3); experiment: Fluorescence Cell-Free Homogeneous Dose Retest to Identify Inhibitors of RecA-Intein Splicing Activity. [Related pubchem assays (depositor defined):AID2097, AID2223, AID489010, AID492950]
T2 sequence (P9WHJ3 whole entry): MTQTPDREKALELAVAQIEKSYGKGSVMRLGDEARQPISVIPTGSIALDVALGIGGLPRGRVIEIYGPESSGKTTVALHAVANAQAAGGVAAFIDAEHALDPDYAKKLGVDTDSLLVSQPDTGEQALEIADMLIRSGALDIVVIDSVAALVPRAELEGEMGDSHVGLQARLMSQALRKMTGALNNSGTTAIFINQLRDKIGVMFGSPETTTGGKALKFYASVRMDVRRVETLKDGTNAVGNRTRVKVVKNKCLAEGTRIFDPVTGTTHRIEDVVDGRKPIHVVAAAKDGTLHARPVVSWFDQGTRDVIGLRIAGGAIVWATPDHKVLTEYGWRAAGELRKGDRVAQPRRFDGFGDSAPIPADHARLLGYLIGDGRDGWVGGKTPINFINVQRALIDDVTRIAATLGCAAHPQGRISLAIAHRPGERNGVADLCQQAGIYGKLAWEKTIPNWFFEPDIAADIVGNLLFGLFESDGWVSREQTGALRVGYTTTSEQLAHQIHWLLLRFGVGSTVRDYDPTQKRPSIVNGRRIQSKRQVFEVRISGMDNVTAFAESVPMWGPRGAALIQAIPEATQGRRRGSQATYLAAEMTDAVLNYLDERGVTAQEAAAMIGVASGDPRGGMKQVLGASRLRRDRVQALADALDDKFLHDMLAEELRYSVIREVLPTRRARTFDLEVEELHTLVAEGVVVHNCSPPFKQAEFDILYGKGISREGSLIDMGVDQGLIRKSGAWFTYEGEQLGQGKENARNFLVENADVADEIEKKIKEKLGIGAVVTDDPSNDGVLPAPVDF

[3] = biological target: T3, Replicative DNA helicase DnaB (Mycobacterium tuberculosis, UniProt P9WMR3); experiment: DnaB intein splicing inhibitors, dose response, biochemical, cell-free fluorescence (AID 449749)
T3 sequence (P9WMR3 whole entry): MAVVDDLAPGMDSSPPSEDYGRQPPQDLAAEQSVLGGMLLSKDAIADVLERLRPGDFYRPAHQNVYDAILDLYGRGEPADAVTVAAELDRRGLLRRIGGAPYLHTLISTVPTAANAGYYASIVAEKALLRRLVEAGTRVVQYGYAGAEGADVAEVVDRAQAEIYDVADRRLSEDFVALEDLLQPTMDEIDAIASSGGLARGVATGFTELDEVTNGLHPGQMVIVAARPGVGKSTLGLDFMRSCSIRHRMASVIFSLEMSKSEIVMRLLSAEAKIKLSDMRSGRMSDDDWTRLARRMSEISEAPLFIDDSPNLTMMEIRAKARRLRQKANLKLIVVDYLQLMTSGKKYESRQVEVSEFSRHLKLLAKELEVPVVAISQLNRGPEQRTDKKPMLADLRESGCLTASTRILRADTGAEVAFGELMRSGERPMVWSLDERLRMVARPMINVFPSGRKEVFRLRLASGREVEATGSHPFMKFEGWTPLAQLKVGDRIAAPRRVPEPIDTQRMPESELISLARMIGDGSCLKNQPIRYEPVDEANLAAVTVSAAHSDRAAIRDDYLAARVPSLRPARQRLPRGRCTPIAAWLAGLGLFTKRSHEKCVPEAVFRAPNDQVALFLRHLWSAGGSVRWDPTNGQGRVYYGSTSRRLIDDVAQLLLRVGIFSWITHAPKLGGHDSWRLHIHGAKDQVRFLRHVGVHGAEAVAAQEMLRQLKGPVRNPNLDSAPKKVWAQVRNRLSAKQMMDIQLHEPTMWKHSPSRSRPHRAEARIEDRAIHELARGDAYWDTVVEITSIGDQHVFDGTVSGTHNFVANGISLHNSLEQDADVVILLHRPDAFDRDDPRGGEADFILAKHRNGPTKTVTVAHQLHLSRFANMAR

[4] = biological target: T4, Caspase-3 (Homo sapiens, UniProt P42574);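 also: Dose-response selectivity test against caspase-3 for candidate inhibitors of sentrin-specific proteases (SENPs)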
T4 sequence (P42574 whole entry): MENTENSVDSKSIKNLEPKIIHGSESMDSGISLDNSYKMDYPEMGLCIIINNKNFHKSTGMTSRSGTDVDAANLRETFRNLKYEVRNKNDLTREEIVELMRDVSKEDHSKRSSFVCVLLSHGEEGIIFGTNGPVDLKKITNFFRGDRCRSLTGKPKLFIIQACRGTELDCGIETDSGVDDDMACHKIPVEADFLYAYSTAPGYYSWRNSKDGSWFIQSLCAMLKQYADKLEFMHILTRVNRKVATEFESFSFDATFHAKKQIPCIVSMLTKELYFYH

In the case of COc1ccc(NC(=S)Nc2ccc3nsnc3c2)cc1, the IC50 [1] is reported as 4.08 µM (active), the EC50 [2] is reported as 17.5 µM (active) and the AC50 [3] is reported as > 120 µM (inactive). For the same molecule, the IC50 [4] was 7.54 µM (active).

In the case of CC(C)(C)c1cc[n+](C2=C([N-]S(=O)(=O)c3ccccc3)C(=O)c3ccccc3C2=O)cc1, the IC50 [1] is reported as 13.5 µM (active), the EC50 [2] is reported as 9.39 µM (active) and the AC50 [3] is reported as 9.28 µM (active). The IC50 [4] was 76.7 µM (active).

For O=C1C(=O)c2ccccc2C(O)=C1CCCCl, the IC50 [1] was 9.05 µM (active), the EC50 [2] was 6.39 µM (active) and the AC50 [3] was 6.36 µM (active). For the same molecule, the IC50 [4] was 37.8 µM (active).

For O=C1C=C(Nc2ccccc2C(=O)O)c2ccccc2C1=O, the IC50 [1] was 7.86 µM (active), the EC50 [2] was 2.34 µM (active) and the AC50 [3] was 2.21 µM (active). For the same molecule, the IC50 [4] was 4.8 µM (active).
